We go through five compounds from PMC6146376, “Rational design of new cyclic analogues of the antimicrobial lipopeptide tridecaptin A1” (Chemical Communications (Cambridge, England), 2018).

In data set [1] the test system is Escherichia coli NCTC 12241. The format is cell-based. The following applies: NCTC 12241, 18 h. As for the experimental part: (§1) [formula] Scheme 1 Synthesis of novel cyclic analogues of TriA1. MIC = minimum inhibitory concentration. Determined by microbroth dilutions assays and experiments run in duplicate. Values are shown to two significant figures and reported in μg mL^–1. ^a Strain NCTC 12241. ^b Strain NCTC 10788. ^c Strain NCTC 9633. ^d Strain NCTC 13304. ^e Strain NCTC 5920. […]
(§2) VIII. Antimicrobial testing
(§3) All minimum inhibitory concentrations (MICs) were determined according to Clinical and Standards Laboratory Institute (CLSI) guidelines.5 Briefly, peptides were dissolved in Muller-Hinton Broth (MHB) and serial dilutions made across a 96 well plate. Each well was inoculated with a suspension of the required bacterial strain to reach a final inoculum of 5 x 10^5 colony forming units per mL. The MIC was taken as the lowest concentration with no visible growth after 18 hours. […]

Data set [2] concerns Staphylococcus aureus NCTC 10788. The format is cell-based. The following applies: NCTC 10788, 18 h. How it is done: as §1, §2, §3
In data set [3] the test system is bacterial indicator strains. Put plainly: Antimicrobial activity, strain not named in the sentence (microbroth dilution). The format is cell-based. The following applies: highest concentration tested 50 μg mL^–1. How it is done:
as §1, §2, §3

Data set [4] is classed as physicochemical. The following applies: pH 7.4. How it is done:
The D-stereoselective peptidase TriF is a membrane associated protein found in Paenibacillus polymyxa CICC 10580.[7] TriFpep, the soluble periplasmic peptidase domain of TriF, which lacks the signal peptide and four hydrophobic transmembrane helices, was expressed in E. coli BL21 cells as a C-terminal His6-tag protein construct.[7] TriA1 analogues 1–9 were incubated with TriFpep at 37 °C for 12 h and the reaction mixtures analysed by UPLC-MS. […] We were unable to test the stability of Oct-cTriA1(biphenyl) (9) as it is insoluble in the TriF assay mixture. […] These analogues therefore represent a new scaffold of macrocyclic peptides with selective activity against Gram-negative bacteria. […]
All minimum inhibitory concentrations (MICs) were determined according to Clinical and Standards Laboratory Institute (CLSI) guidelines.5 Briefly, peptides were dissolved in Muller-Hinton Broth (MHB) and serial dilutions made across a 96 well plate. […]
TriFpep was expressed and purified as previously described.3 An assay mixture (total volume 30 μL in 25% phosphate-buffered saline (PBS) buffer, pH 7.4) containing TriFpep (2.0 μM) and the desired peptide (added as a DMSO solution to give a final concentration of 20 μM) was prepared and incubated for 12 h at 37 °C. […] The samples were centrifuged at 15,000 rpm for 10 min and 2 μL of the supernatant was analyzed by UPLC–MS system as previously described.3

Non-standard residues stand in square brackets, D forms with d. Residues, ends and D or L forms follow the SMILES beside them. *: point of attachment. d(aIle) = CC[C@H](C)[C@@H](N)C(=O)O; dAllylGly = C=CC[C@@H](N)C(=O)O; AllylGly = C=CC[C@H](N)C(=O)O; dDab = NCC[C@@H](N)C(=O)O; Octanoyl = CCCCCCCC(=O)*; Dab = NCC[C@H](N)C(=O)O

Regarding `C=CC[C@H](NC(=O)[C@@H](CCN)NC(=O)[C@H](CCN)NC(=O)[C@H](CO)NC(=O)[C@@H](CC=C)NC(=O)[C@@H](CO)NC(=O)CNC(=O)[C@@H](CCN)NC(=O)[C@H](NC(=O)CCCCCCC)C(C)C)C(=O)N[C@@H](CCC(=O)O)C(=O)N[C@H](C(=O)N[C@@H](C(=O)N[C@@H](C)C(=O)O)[C@@H](C)CC)C(C)C` [Peptide 2, Oct-TriA1-(5-D-Agl, 9-Agl)] (Octanoyl-[dV][dDab]G[dS][dAllylGly]S[Dab][dDab][AllylGly]EV[d(aIle)]A-OH), in data set [1], the “MIC E. coli” value is over 50 μg mL^–1. The “MIC S. aureus” value in data set [2] is given as over 50 μg mL^–1.

In the case of `C=CCSC[C@H](NC(=O)[C@@H](CCN)NC(=O)[C@H](CCN)NC(=O)[C@H](CO)NC(=O)[C@@H](CSCC=C)NC(=O)[C@@H](CO)NC(=O)CNC(=O)[C@@H](CCN)NC(=O)[C@H](NC(=O)CCCCCCC)C(C)C)C(=O)N[C@@H](CCC(=O)O)C(=O)N[C@H](C(=O)N[C@@H](C(=O)N[C@@H](C)C(=O)O)[C@@H](C)CC)C(C)C` [Peptide 3, Oct-TriA1-(5-D-Sac, 9-Sac)], the “MIC E. coli” value in data set [1] is listed as over 50 μg mL^–1. Moreover, in data set [2], the “MIC S. aureus” value is over 50 μg mL^–1.

For the compound `CCCCCCCC(=O)N[C@@H](C(=O)N[C@H](CCN)C(=O)NCC(=O)N[C@H](CO)C(=O)N[C@@H]1CSCc2ccc(cc2)-c2ccc(cc2)CSC[C@@H](C(=O)N[C@@H](CCC(=O)O)C(=O)N[C@H](C(=O)N[C@@H](C(=O)N[C@@H](C)C(=O)O)[C@@H](C)CC)C(C)C)NC(=O)[C@@H](CCN)NC(=O)[C@H](CCN)NC(=O)[C@H](CO)NC1=O)C(C)C` [Peptide 9, Oct-cTriA1 (biphenyl)], the “antimicrobial activity (MIC bound, strain not named)” value in data set [3] is reported as over 50 μg mL^–1. Besides, the “solubility in the TriF assay mixture” value in data set [4] is listed as “insoluble”.

Consider `CCCCCCCC(=O)N[C@@H](C(=O)N[C@H](CCN)C(=O)NCC(=O)N[C@H](CO)C(=O)N[C@H](Cc1c[nH]c2ccccc12)C(=O)N[C@@H](CO)C(=O)N[C@@H](CCN)C(=O)N[C@H](CCN)C(=O)N[C@@H](Cc1ccccc1)C(=O)N[C@@H](CCC(=O)O)C(=O)N[C@H](C(=O)N[C@@H](C(=O)N[C@@H](C)C(=O)O)[C@@H](C)CC)C(C)C)C(C)C` [Peptide 1, Oct-TriA1], for which the “MIC E. coli” value in data set [1] was 0.39 μg mL^–1. For the same compound, the “MIC S. aureus” value in data set [2] was 25 μg mL^–1.

Take `CCCCCCCC(=O)N[C@@H](C(=O)N[C@H](CCN)C(=O)NCC(=O)N[C@H](CO)C(=O)N[C@H](CS)C(=O)N[C@@H](CO)C(=O)N[C@@H](CCN)C(=O)N[C@H](CCN)C(=O)N[C@@H](CS)C(=O)N[C@@H](CCC(=O)O)C(=O)N[C@H](C(=O)N[C@@H](C(=O)N[C@@H](C)C(=O)O)[C@@H](C)CC)C(C)C)C(C)C` [Peptide 4, Oct-TriA1-(5-D-Cys, 9-Cys)]: the “MIC E. coli” value in data set [1] is given as over 50 μg mL^–1. Further, in data set [2], the “MIC S. aureus” value is over 50 μg mL^–1.
